Here are results for 16 compounds from US11524951B2, “2-(2,4,5-substituted-anilino)pyrimidine compounds” (AstraZeneca AB, priority 2011, dated 2022).

Molecules are shown by their SMILES.

Common to all, as to type: cell-based
In one assay the target is T1, Wild-type EGFR (Homo sapiens, UniProt P00533).
T1 construct: Assays to measure cellular phosphorylation of endogenous p-EGFR in cell lysates; endogenous in cells; host or cells: LoVo (human colon cell line)
The assay is described as follows: Wild-type EGFR cellular phosphorylation assay. The following applies: LoVo human colon cells; endogenous p-EGFR in cell lysates by ELISA; 2 h with compound, then stimulated 100 ng/ml for 10 minutes; read-out: Assay 3 (IC50). The protocol:
Assay 3: Wild-Type EGFR Cellular Phosphorylation Assay
The human colon cell line LoVo were obtained from the American type Culture Collection. […] Cells were grown in a humidified incubator at 37° C. with 5% CO2. Assays to measure cellular phosphorylation of endogenous p-EGFR in cell lysates were carried out according to the protocol described in the R&D Systems DuoSet IC Human Phospho-EGF R ELISA (R&D Systems catalogue number #DYC1095). 40 μL of cells were seeded (15000 cells/well) in growth medium in Corning black, clear-bottomed 384-well plates and incubated at 37° C. with 5% CO2 overnight. […] Plates were incubated for a further 2 h then stimulated with 100 ng/ml for 10 minutes and following aspiration of medium, 40 μL 1× lysis buffer was added to each well. Greiner black high bind 384-well plates were coated with capture antibody and then blocked with 3% BSA. […] Following aspiration and washing of the plates with PBS, 20 μL of detection antibody were added and incubated for 2 hours. […] The data obtained with each compound was exported into a suitable software package (such as Origin) to perform curve fitting analysis.
(In general: An ELISA detects its analyte on a solid surface through an enzyme-linked reagent.)

A further assay has as its target T2, Exon19 deletion EGFR (Homo sapiens, UniProt P00533, DEL746-750).
T2 construct: Assays to measure cellular phosphorylation of endogenous p-EGFR in cell lysates; endogenous in cells; host or cells: PC9 (human lung cell line)
Put plainly: Exon19 deletion EGFR (activating single mutant) cellular phosphorylation assay. The following applies: PC9 human lung cells (Exon 19 deletion EGFR); endogenous p-EGFR in cell lysates by ELISA; 2 h with compound; read-out: Assay 1 (IC50). The protocol: Assay 1: Exon19 Deletion EGFR (Activating Single Mutant) Cellular Phosphorylation Assay
The human lung cell line PC9 (Exon 19 deletion EGFR) were obtained from the American type Culture Collection. […] Cells were grown in a humidified incubator at 37° C. with 5% CO2. Assays to measure cellular phosphorylation of endogenous p-EGFR in cell lysates were carried out according to the protocol described in the R&D Systems DuoSet IC Human Phospho-EGF R ELISA (R&D Systems catalogue number #DYC1095). 40 μL of cells were seeded (10000 cells/well) in growth medium in Corning black, clear-bottomed 384-well plates and incubated at 37° C. with 5% CO2 overnight. […] Plates were incubated for a further 2 h, then following aspiration of medium, 40 μL 1× lysis buffer was added to each well. Greiner black high bind 384-well plates were coated with capture antibody and then blocked with 3% BSA. Following removal of block, […], of lysate were transferred to the Greiner black high bind 384-well plates and incubated for 2 hours. Following aspiration and washing of the plates with PBS, 20 μL of detection antibody were added and incubated for 2 hours. […] The data obtained with each compound was exported into a suitable software package (such as Origin) to perform curve fitting analysis.

Another assay concerns the target T3, L858R/T790M EGFR (Homo sapiens, UniProt P00533, L858R/T790M).
T3 construct: Assays to measure cellular phosphorylation of endogenous p-EGFR in cell lysates; endogenous in cells; host or cells: NCI-H1975 (human lung cell line)
Put plainly: L858R/T790M EGFR (double mutant) cellular phosphorylation assay. The following applies: NCI-H1975 human lung cells; endogenous p-EGFR in cell lysates by ELISA; 2 h with compound. Here is the method: Assay 2: L858R/T790M EGFR (Double Mutant) Cellular Phosphorylation Assay
The human lung cell lines NCI-H1975 were obtained from the American type Culture Collection. […] Cells were grown in a humidified incubator at 37° C. with 5% CO2.
Assays to measure cellular phosphorylation of endogenous p-EGFR in cell lysates were carried out according to the protocol described in the R&D Systems DuoSet IC Human Phospho-EGF R ELISA (R&D Systems catalogue number #DYC1095).
40 μL of cells were seeded (10000 cells/well) in growth medium in Corning black, clear-bottomed 384-well plates and incubated at 37° C. with 5% CO2 overnight. […] Plates were incubated for a further 2 h and following aspiration of medium, 40 μL 1× lysis buffer was added to each well. Greiner black high bind 384-well plates were coated with capture antibody and then blocked with 3% BSA. Following removal of block, 15 μL of lysate were transferred to the Greiner black high bind 384-well plates and incubated for 2 hours. Following aspiration and washing of the plates with PBS, 20 μL of detection antibody were added and incubated for 2 hours. […] 20 μL QuantaBlu stop solution were added to plates and fluorescence read on an Envision plate reader using
The data obtained with each compound was exported into a suitable software package (such as Origin) to perform curve fitting analysis.

T1 sequence (P00533 25-1210): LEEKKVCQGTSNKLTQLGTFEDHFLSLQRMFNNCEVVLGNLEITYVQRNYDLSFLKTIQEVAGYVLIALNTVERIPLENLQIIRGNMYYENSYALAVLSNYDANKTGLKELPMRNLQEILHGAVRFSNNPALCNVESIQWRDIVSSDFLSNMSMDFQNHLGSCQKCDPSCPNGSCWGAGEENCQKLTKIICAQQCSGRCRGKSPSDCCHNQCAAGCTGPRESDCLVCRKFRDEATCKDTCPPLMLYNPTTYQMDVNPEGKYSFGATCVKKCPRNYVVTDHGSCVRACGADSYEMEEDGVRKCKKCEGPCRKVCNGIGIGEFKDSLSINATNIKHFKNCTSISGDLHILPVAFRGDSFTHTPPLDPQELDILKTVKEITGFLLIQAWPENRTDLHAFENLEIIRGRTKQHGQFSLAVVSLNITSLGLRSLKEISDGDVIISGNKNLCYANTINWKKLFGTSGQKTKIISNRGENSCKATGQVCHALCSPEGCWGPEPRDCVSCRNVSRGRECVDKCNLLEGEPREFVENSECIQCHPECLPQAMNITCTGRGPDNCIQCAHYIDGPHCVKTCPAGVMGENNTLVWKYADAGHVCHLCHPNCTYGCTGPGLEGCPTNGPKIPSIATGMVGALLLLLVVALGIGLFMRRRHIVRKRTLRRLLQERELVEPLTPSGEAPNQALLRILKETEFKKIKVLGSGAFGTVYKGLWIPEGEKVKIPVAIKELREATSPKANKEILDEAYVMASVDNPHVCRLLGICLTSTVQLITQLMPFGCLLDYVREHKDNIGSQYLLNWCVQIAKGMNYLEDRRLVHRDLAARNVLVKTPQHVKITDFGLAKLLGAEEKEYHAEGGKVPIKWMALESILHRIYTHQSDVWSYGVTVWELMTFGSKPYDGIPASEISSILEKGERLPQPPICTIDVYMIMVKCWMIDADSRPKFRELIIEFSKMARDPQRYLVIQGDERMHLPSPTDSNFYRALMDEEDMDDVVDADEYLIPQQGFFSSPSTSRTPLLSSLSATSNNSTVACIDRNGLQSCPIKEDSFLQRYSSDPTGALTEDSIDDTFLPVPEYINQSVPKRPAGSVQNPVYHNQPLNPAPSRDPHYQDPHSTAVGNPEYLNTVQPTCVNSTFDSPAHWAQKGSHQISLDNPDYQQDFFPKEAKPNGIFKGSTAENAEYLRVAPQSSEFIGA
T2 sequence (P00533 with tags, fused parts or gaps DEL746-750): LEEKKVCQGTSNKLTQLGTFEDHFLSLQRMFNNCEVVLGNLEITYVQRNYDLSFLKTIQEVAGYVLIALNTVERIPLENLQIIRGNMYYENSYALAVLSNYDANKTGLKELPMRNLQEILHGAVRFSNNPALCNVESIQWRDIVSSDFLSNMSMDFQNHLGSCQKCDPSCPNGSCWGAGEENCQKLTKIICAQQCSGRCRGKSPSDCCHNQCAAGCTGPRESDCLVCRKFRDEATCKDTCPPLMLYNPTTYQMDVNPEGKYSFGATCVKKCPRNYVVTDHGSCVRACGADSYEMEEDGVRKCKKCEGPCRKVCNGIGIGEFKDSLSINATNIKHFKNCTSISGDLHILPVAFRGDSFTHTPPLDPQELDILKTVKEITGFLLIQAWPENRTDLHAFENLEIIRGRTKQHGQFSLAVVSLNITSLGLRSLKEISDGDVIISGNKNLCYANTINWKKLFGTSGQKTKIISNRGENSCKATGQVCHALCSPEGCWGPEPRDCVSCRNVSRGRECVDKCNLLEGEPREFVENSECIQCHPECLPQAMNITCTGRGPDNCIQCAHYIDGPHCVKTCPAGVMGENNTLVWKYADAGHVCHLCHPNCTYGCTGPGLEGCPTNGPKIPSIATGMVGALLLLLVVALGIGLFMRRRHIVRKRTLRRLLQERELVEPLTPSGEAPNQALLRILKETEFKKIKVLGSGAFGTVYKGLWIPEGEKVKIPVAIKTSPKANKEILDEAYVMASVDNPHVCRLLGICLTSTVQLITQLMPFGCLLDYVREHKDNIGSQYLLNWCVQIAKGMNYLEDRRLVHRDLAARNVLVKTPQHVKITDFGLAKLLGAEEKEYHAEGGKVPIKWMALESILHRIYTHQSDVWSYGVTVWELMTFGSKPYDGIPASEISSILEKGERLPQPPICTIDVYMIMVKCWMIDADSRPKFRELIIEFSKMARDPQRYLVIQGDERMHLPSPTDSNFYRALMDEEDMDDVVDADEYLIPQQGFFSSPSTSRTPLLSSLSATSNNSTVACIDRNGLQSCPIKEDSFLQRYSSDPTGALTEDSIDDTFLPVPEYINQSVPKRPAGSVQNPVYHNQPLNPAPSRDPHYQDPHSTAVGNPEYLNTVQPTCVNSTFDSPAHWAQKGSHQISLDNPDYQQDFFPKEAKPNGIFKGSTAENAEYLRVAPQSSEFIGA
T3 sequence (P00533 25-1210 T790M/L858R): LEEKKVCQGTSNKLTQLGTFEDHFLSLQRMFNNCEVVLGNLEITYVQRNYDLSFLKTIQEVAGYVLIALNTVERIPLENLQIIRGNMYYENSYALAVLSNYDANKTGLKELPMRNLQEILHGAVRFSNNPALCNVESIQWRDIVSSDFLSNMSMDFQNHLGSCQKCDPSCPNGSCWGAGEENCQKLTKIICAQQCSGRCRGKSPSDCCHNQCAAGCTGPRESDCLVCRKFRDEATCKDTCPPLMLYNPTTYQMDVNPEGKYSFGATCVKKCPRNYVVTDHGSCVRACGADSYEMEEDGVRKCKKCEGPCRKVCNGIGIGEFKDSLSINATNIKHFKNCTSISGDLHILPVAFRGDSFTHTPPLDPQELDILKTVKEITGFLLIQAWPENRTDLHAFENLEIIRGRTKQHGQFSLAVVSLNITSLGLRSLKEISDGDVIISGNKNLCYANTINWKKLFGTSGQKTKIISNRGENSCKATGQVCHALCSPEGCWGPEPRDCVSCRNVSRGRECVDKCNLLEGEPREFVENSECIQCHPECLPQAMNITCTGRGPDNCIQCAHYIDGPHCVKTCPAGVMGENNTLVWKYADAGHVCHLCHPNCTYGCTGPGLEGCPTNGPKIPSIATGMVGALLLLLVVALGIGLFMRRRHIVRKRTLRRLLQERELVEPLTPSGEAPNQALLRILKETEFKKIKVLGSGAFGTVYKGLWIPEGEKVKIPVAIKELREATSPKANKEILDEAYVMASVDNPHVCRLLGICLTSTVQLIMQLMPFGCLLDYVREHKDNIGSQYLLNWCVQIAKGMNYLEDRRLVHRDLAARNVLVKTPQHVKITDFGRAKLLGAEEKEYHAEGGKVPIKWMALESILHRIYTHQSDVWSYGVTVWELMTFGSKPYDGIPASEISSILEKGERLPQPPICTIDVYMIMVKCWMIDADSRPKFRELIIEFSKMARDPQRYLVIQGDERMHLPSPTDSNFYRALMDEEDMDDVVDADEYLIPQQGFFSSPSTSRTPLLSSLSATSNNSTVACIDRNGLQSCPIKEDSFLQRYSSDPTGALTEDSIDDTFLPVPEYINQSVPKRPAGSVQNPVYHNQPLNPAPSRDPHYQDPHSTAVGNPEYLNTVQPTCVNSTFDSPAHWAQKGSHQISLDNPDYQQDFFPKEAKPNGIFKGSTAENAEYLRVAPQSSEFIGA

Usually IC50 stands for the midpoint of a concentration-inhibition curve. As to `C=CC(=O)Nc1cc(Nc2ncc(C#N)c(-c3cn(C)c4ccccc34)n2)c(OC)cc1N1CC[C@@H](N(C)C)C1` [Example 22, N-(5-{[5-Cyano-4-(1-methylindol-3-yl)pyrimidin-2-yl]amino}-2-{(3R)-3-dimethylaminopyrrolidin-1-yl}-4-methoxyphenyl)prop-2-enamide], the half-inhibitory concentration (IC50) on Wild-type EGFR came out at 73.4 nM; on Exon19 deletion EGFR it was 2.14 nM; on L858R/T790M EGFR, 1.52 nM.
`C=CC(=O)Nc1cc(Nc2ncc(Cl)c(-c3cnn4ccccc34)n2)c(OC)cc1C1=CCN(C)CC1` [Example 9, N-{5-[(5-Chloro-4-pyrazolo[1,5-a]pyridin-3-ylpyrimidin-2-yl)amino]-4-methoxy-2-[1-methyl-3,6-dihydro-2H-pyridin-4-yl]phenyl}prop-2-enamide]: the IC50 was determined as 874 nM at Wild-type EGFR, 9.96 nM at Exon19 deletion EGFR and 2.82 nM at L858R/T790M EGFR.
The matching figures for `C=CC(=O)Nc1cc(Nc2ncc(Cl)c(-c3cn(C)c4ccccc34)n2)c(OC)cc1N1CC(N(C)C)C1` [Example 34, N-(5-{[5-Chloro-4-(1-methylindol-3-yl)pyrimidin-2-yl]amino}-2-{3-dimethylaminoazetidin-1-yl}-4-methoxyphenyl)prop-2-enamide]: 153 nM, 9.04 nM and 3.77 nM.
Taken in the same sequence, the figures for `C=CC(=O)Nc1cc(Nc2nccc(-c3cn(C)c4ccccc34)n2)c(OC)cc1N(C)CCNC` [Example 60, N-(4-Methoxy-5-{[4-(1-methylindol-3-yl)pyrimidin-2-yl]amino}-2-[methyl-(2-methylaminoethyl)amino]phenyl)prop-2-enamide] were 624 nM, 14.6 nM and 48.9 nM.
The matching figures for `C=CC(=O)Nc1cc(Nc2nccc(-c3cn(C)c4ccccc34)n2)c(OC)cc1C1=CCN(C)CC1` [Example 48, N-(4-Methoxy-2-{1-methyl-3,6-dihydro-2H-pyridin-4-yl}-5-{[4-(1-methylindol-3-yl)pyrimidin-2-yl]amino}phenyl)prop-2-enamide]: 1580 nM, 39.9 nM and 31 nM.
For `C=CC(=O)Nc1cc(Nc2ncc(Cl)c(-c3c[nH]c4ccccc34)n2)c(OC)cc1N1CC(N(C)C)C1` [Example 37, N-(5-{[5-Chloro-4-(1H-indol-3-yl)pyrimidin-2-yl]amino}-2-{3-dimethylaminoazetidin-1-yl}-4-methoxyphenyl)prop-2-enamide], the half-inhibitory concentration (IC50) came to 48.6 nM at Wild-type EGFR, 2.11 nM on Exon19 deletion EGFR and 1.81 nM at L858R/T790M EGFR.
As to `C=CC(=O)Nc1cc(Nc2ncc(Cl)c(-c3cn(C)c4ccccc34)n2)c(OC)cc1N1CC[C@@H](N(C)C)C1` [Example 21, N-(5-{[5-Chloro-4-(1-methylindol-3-yl)pyrimidin-2-yl]amino}-2-{(3R)-3-dimethylaminopyrrolidin-1-yl}-4-methoxyphenyl)prop-2-enamide], the IC50 at Wild-type EGFR came out at 128 nM; on Exon19 deletion EGFR, 2.95 nM; on L858R/T790M EGFR, 2.34 nM.
For the compound `C=CC(=O)Nc1cc(Nc2ncc(Cl)c(-c3c[nH]c4ccccc34)n2)c(OC)cc1N(C)CCN(C)C` [Example 25, N-(5-{[5-Chloro-4-(1H-indol-3-yl)pyrimidin-2-yl]amino}-2-{2-dimethyl-aminoethyl-methylamino}-4-methoxyphenyl)prop-2-enamide], the IC50 at Wild-type EGFR turned out to be 10.9 nM; at Exon19 deletion EGFR, 0.581 nM; on L858R/T790M EGFR, 0.238 nM.
The matching figures for `C=CC(=O)Nc1cc(Nc2ncc(C)c(-c3c[nH]c4ccccc34)n2)c(OC)cc1N1CCN(C)CC1` [Example 3, N-(5-{[4-(1H-Indol-3-yl)-5-methylpyrimidin-2-yl]amino}-4-methoxy-2-[4-methylpiperazin-1-yl]phenyl)prop-2-enamide]: 522 nM, 10.5 nM and 15.5 nM.
The matching figures for `C=CC(=O)Nc1cc(Nc2ncc(C)c(-c3cn(C)c4ccccc34)n2)c(OC)cc1N1CC(N(C)C)C1` [Example 35, N-(2-{3-Dimethylaminoazetidin-1-yl}-4-methoxy-5-{[5-methyl-4-(1-methylindol-3-yl)pyrimidin-2-yl]amino}phenyl)prop-2-enamide]: 262 nM, 8.57 nM and 6.77 nM.
The matching figures for `C=CC(=O)Nc1cc(Nc2ncc(C#N)c(-c3cn(C)c4ccccc34)n2)c(OC)cc1N(C)CCN(C)C` [Example 29, N-(5-{[5-Cyano-4-(1-methylindol-3-yl)pyrimidin-2-yl]amino}-2-{2-dimethylaminoethyl-methylamino}-4-methoxyphenyl)prop-2-enamide]: 46.5 nM, 1.23 nM and 0.885 nM.
With `C=CC(=O)Nc1cc(Nc2ncc(C)c(-c3cn(C)c4ccccc34)n2)c(OC)cc1N1CCN(C)CC1` [Example 18, N-(4-Methoxy-5-{[5-methyl-4-(1-methylindol-3-yl)pyrimidin-2-yl]amino}-2-{4-methylpiperazin-1-yl}phenyl)prop-2-enamide], the concentration for half-maximal inhibition (IC50) on Wild-type EGFR worked out at 2700 nM; at Exon19 deletion EGFR, 66.4 nM; at L858R/T790M EGFR it was 31.4 nM.
In the case of `C=CC(=O)Nc1cc(Nc2nccc(-c3cnn4c3CCCC4)n2)c(OC)cc1N1CC[C@@H](N(C)C)C1` [Example 44, N-(2-{(3R)-3-Dimethylaminopyrrolidin-1-yl}-4-methoxy-5-{[4-(4,5,6,7-tetrahydropyrazolo[1,5-a]pyridin-3-yl)pyrimidin-2-yl]amino}phenyl)prop-2-enamide], the half-maximal inhibitory concentration (IC50) on Wild-type EGFR is 3640 nM; at Exon19 deletion EGFR it was 33.3 nM; on L858R/T790M EGFR, 25.6 nM.
With `C=CC(=O)Nc1cc(Nc2ncc(Cl)c(-c3cnn4ccccc34)n2)c(OC)cc1N1CCN(CC(=O)N(C)C)CC1` [Example 10, N-{5-[(5-Chloro-4-pyrazolo[1,5-a]pyridin-3-ylpyrimidin-2-yl)amino]-2-[4-(2-dimethylamino-2-oxoethyl)piperazin-1-yl]-4-methoxyphenyl}prop-2-enamide], the IC50 on Wild-type EGFR worked out at 8430 nM; on Exon19 deletion EGFR it was 73.8 nM; on L858R/T790M EGFR, 40 nM.
Take `C=CC(=O)Nc1cc(Nc2nccc(-c3cnn4c3CCCC4)n2)c(OC)cc1C1=CCN(C)CC1` [Example 45, N-(4-Methoxy-2-{1-methyl-3,6-dihydro-2H-pyridin-4-yl}-5-{[4-(4,5,6,7-tetrahydropyrazolo[1,5-a]pyridin-3-yl)pyrimidin-2-yl]amino}phenyl)prop-2-enamide]: the IC50 was determined as 7400 nM on Wild-type EGFR, 110 nM on Exon19 deletion EGFR and 41 nM at L858R/T790M EGFR.
On to `C=CC(=O)Nc1cc(Nc2nccc(-c3cnn4ccccc34)n2)c(OC)cc1N1CC(N(C)C)C1` [Example 53, N-{2-(3-Dimethylaminoazetidin-1-yl)-4-methoxy-5-[(4-pyrazolo[1,5-a]pyridin-3-ylpyrimidin-2-yl)amino]phenyl}prop-2-enamide], for which the IC50 on Wild-type EGFR is 2640 nM; on Exon19 deletion EGFR, 35.4 nM; on L858R/T790M EGFR it was 28.2 nM.
